Data reported in paper PMC10043345, “Discovery of BAR502, as potent steroidal antagonist of leukemia inhibitory factor receptor for the treatment of pancreatic adenocarcinoma” (Frontiers in Oncology, 2023).

Legend:
[1] = test system: MIA PaCa-2 cells; assay: Scratch wound healing assay; assay type: cell-based, human; settings: BAR502 10 µM + LIF 10 ng/mL; 0, 24, 48 h
Experimental: MIA PaCa-2 cells were seeded in DMEM complete medium at […] cells/well into 24-well plate and used at 70-80% confluence rate. The assay was performed as previously described ([20]), particularly on the day 1, the cell monolayers were gently scraped vertically with a new 0.2 mL pipette tip across the centre of the well. After scratching, the well was gently washed twice with PBS (Euroclone, Milan, Italy) to remove the detached cells and cell debris and finally fresh medium containing LIF (10 ng/mL) alone or in combination with BAR502 (10 µM) or EC359 (25 nM) was added into each well. Immediately after scratch creation, the 24-plate was placed under a phase-contrast microscope and the first image of the scratch acquired (T0) with using a OPTIKAM Pro Cool 5 – 4083.CL5 camera. Cells were grown for additional 48 h and images taken at 24h (T1) and 48 h (T2). The gap distance between scarps borders was quantified by assessing that area between the two margins of the scratches. All experiments were performed in triplicate.

[2] = test system: MIA PaCa-2 cells; assay: Real-time PCR and Western blot of EMT markers, CXCR4 and STAT3 phosphorylation; assay type: cell-based, human
Experimental: The RNA was extracted from cell lines using and Direct-zol™ RNA MiniPrep w/Zymo-Spin™ IIC Columns (Zymo Research, Irvine, CA, USA)., according to the manufacturer’s protocol as described previously ([20]). After purification from genomic DNA by DNase-I treatment (ThermoFisher Scientific, Waltham, MA USA), 2 µg of RNA from each sample was reverse-transcribed using Kit FastGene Scriptase Basic (Nippon Genetics, Mariaweilerstraße, Düren, Germania) in a 20 μL reaction volume. Finally, 50 ng cDNA were amp LIFied in a 20 μL solution containing 200 nM of each primer and 10 μL of SYBR Select Master Mix (ThermoFisher Scientific). All reactions were performed in triplicate, and the thermal cycling conditions were as follows: 3 min at 95°C, followed by 40 cycles of 95°C for 15 s, 56°C for 20 s and 72°C for 30 s, using a Step One Plus machine (Applied Biosystem). The relative mRNA expression was calculated accordingly to the 2^-ΔCt method. Primers used in this study were designed using the PRIMER3 (http://frodo.wi.mit.edu/primer3/) software using the NCBI […]. RT-PCR primers used in this study for human sample and human cell lines were as follow [forward (for) and reverse (rev)]:
MIA-PaCa 2 cells were seeded in 6-well tissue culture plate (cell density 1.5 * 10^6/well) in DMEM complete medium. After serum starving, cells were incubated with LIF (10 ng/mL) alone or plus BAR502 (10 µM) for 10 min. Total lysates were prepared by homogenization of MIA-PaCa2 cells in RIPA buffer containing phosphatase and protease inhibitors. […] Primary Abs were detected with the HRP-labeled secondary Abs. […] Quantitative densitometry analysis was performed using ImageJ software. The degree of STAT3 phosphorylation was calculated as the ratio between the densitometry readings of […] p-STAT3/STAT3.

`CC[C@H]1[C@@H](O)C2C3CC[C@H]([C@H](C)CCO)[C@@]3(C)CCC2[C@@]2(C)CC[C@@H](O)C[C@@H]12` (stereo partly shown) [BAR502] was tested, and the “reduction of detachment and migration compared to LIF” value [1] was “≈ 40%”, the “effect on STAT3 phosphorylation caused by LIF” value ([2]; BAR502 10 µM + LIF 10 ng/mL, Western blot) was “significantly attenuated STAT3 phosphorylation” and the “effect on vimentin expression (RNA and protein) induced by LIF” value ([2]; BAR502 10-20 μM + LIF 10 ng/mL) was “reversed the induction of vimentin expression”. For the same molecule, the “effect on CXCR4 mRNA expression increased by LIF” value ([2]; BAR502 + LIF 10 ng/mL, 24 h) was “reversed the mRNA expression”.
